{"source": "paper PMC11942360", "about": "“Intratracheal Delivery of a Phospholamban Decoy Peptide Attenuates Cardiac Damage Following Myocardial Infarction” (International Journal of Molecular Sciences, 2025)", "key": {"PP1cα": {"target": "T1, PP1cα (Mus musculus, UniProt P62137)", "T1 construct": "from tissue; host or cells: normal mouse heart after IT injection of biotin-dNP2-SE", "T1 sequence (P62137 whole entry)": "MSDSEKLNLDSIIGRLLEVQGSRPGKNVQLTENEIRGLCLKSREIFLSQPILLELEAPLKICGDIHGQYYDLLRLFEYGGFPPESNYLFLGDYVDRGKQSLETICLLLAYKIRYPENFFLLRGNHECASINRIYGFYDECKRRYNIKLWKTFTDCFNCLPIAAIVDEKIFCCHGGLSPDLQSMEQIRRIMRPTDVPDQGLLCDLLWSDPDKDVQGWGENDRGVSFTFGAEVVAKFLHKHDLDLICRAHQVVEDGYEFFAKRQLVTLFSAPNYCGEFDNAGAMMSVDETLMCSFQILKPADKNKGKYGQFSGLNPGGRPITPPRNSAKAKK", "assay": "Streptavidin precipitation of biotin-dNP2-SE from heart lysates, blot for PP1cα", "format": "binding, mice", "settings": "biotin-dNP2-SE delivered to the normal heart via IT injection", "text": "(§1) Figure 5 Inhibitory mechanism of dNP2-SE on the PP1cα-PPP1R3A-PLN complex. (A) Protein lysates shown in Figure 4 were subjected to immunoprecipitation with anti-PP1cα antibodies and blotted with antibodies against PLN, PPP1R3A, and PP1cα (upper three rows). Inputs were also blotted with antibodies against PLN, PPP1R3A, and PP1cα (lower three rows). (B) Biotin-dNP2-SE was delivered to the normal heart via IT injection. Heart lysates were obtained, precipitated with streptavidin, and blotted with PP1cα, PPP1R3A, and PLN. Inputs were also blotted."}, "[1]": {"system": "C57/Bl6 mice, myocardial infarction", "assay": "Myocardial infarction model: hemodynamic analysis (PV loops)", "format": "in vivo", "settings": "200 nmoles IT 3 h prior to MI, 24 h post-MI, n = 5~8 per group", "protocol": "Figure 3 Delivery of dNP2-SE via IT injection preserves cardiac contractility upon MI. Hemodynamic analyses were performed 24 h post-MI to measure cardiac contractility. (A) Representative PV loops are shown. (B) End-systolic pressure–volume relationship (ESPVR), dp/dt max (mmHg), and dp/dt min (mmHg) are shown. […] Bar represents the mean ± SEM.\n(§2) The left side of the chest was shaved, and an intubation tube was inserted into the trachea. An incision was made in the 4th intercostal space, and the muscles were separated with scissors. The pericardium was gently removed. MI was induced by ligation of the left anterior descending (LAD) artery using a 7–0 black silk suture. The lower region of the artery turned pale immediately after ligation. The chest was sutured with 4–0 black silk. The same surgical procedure, without LAD ligation, was performed for the sham operation.\nAn incision was made in the abdominal wall to expose the abdominal cavity. The diaphragm was carefully separated from the ribs to avoid bleeding during the incision procedures. The xiphoid process was lifted, and the diaphragm was pulled down and fixed to secure the site. The pericardium was then removed. A small puncture was made in the left ventricle using an insulin syringe, and a probe was inserted through the puncture (AD instruments, Dunedin, New Zealand). Data analysis was performed using LabChart 8 (AD instruments, New Zealand)."}, "[2]": {"system": "SERCA2a, α-SMA, phospho-PLN (S16), PP1cα, PPP1R3A in heart", "assay": "Myocardial infarction model: western blotting of heart lysates", "format": "in vivo, mice", "settings": "200 nmoles IT 3 h prior to MI, 24 h post-MI, western blot, n = 3 per group", "text": "Figure 4 Delivery of dNP2-SE via IT injection prevents molecular abnormalities upon MI. (A) Protein lysates obtained from the hearts shown in Figure 2 and Figure 3 were subjected to western blotting. Antibodies against SERCA2a, α-SMA, phospho-PLN, PLN, PP1cα, and PPP1R3A were used. β-actin was used as a loading control. (B) The ratio of phosphorylated PLN over PLN is shown. […] Bar represents the mean ± SEM."}, "[3]": {"target": "T2, PP1cα-PPP1R3A-PLN complex (Mus musculus, UniProt P62137)", "T2 construct": "from tissue; host or cells: mouse heart (C57BL/6, after MI, PBS- or dNP2-SE-injected)", "T2 sequence (P62137 whole entry, one chain of several)": "as the sequence (P62137 whole entry) above", "assay": "Immunoprecipitation of heart lysates with anti-PP1cα antibodies", "settings": "heart lysates of MI mice given 200 nmoles IT, IP with anti-PP1cα", "text": "as §1\nImmunoprecipitation was performed by adding 1 µg of the corresponding antibody to 1 mg of lysate. The mixture was gently inverted on a rotator overnight at 4 °C. After the primary antibody incubation, 30 µL of protein A-conjugated magnetic beads (88845, Thermo Fisher, Waltham, MA, USA) were added and incubated for 1 h to bind with the antibody. To isolate the protein–antibody–bead complex from the lysate, the mixture was centrifuged at 3000 rpm for 3 min at 4 °C and washed 4 times with lysis buffer. As a control for the precipitates, 2% of the initial protein amount used for pulldown was prepared as input. The collected complexes and inputs were used for western blots."}, "[4]": {"system": "C57/Bl6 mice, myocardial infarction", "assay": "Myocardial infarction (LAD ligation) model: histology and heart morphology", "format": "in vivo", "settings": "200 nmoles IT 3 h prior to MI, vs PBS-injected", "protocol": "(§3) Figure 2 Delivery of dNP2-SE via IT injection exerts cardio-protective effects upon MI. (A) Experimental scheme. A total of 200 nmol dNP2-SE or PBS was delivered via IT injection to adult (9-week-old) C57/Bl6 mice. MI was induced by LAD ligation 3 h post-injection. Hearts were harvested and analyzed 24 h post-MI. (B) Hearts were sectioned and stained with hematoxylin and eosin (H&E) or Picro Sirius Red. Representative images are shown. The LV chamber area was traced (shown in blue lines) and quantitated. The thickness of the LV free wall was also measured (shown in straight black lines). (C,D) LV chamber area and LV free wall thickness are presented as a graph. n = 6~7 per group; one-way ANOVA; *** p < 0.001. Bar represents the mean ±SEM. […] Bar represents the mean ±SEM. (F) TUNEL staining of the heart sections was performed using the DeadEnd Fluorometric TUNEL System. Apoptotic DNA fragmentation was labeled with fluorescein-12-dUTP (green). Nuclei were stained with Hoechst 33342 (blue). Representative images are shown. […] Bar represents the mean ± SEM.\nas §2\nHarvested heart tissues were fixed in 4% PFA for 24 h at 4 °C and then washed with tap water. After discarding the tap water, the tissues were sequentially incubated in 70%, 80%, 95%, and 100% ethanol for 1 h each to dehydrate. Following the ethanol incubations, the tissues were incubated in xylene for 1 h and 20 min and then embedded in paraffin at 60 °C for 4 h. Paraffin-embedded tissues were sliced into 8 µm sections. After rehydration, the sections were used for histology as follows:\nH&E staining: The sections were incubated in hematoxylin (26041-06, Electron Microscopy Science, Hatfield, PA, USA) for 30 s to stain the nuclei, followed by a 10 min wash in running tap water to remove excess stain. Subsequently, the sections were incubated in eosin (EOYA-05-OT-1L, Biognost, Zagreb, Croatia) for 2 min to stain the cytoplasm.\nPicro Sirius staining: The sections were incubated for 60 min in Picro Sirius Red solution (ab150681, Abcam, Waltham, MA, USA), rinsed twice with 0.5% acetic acid, and then rinsed with absolute alcohol. H&E and Picro Sirius-stained slides were observed using a slide scanner (Aperio CS2, Leica, Germany)."}, "[5]": {"system": "C57/Bl6 mice, myocardial infarction", "assay": "Myocardial infarction model: TUNEL staining of heart sections", "format": "in vivo", "settings": "200 nmoles IT 3 h prior to MI; 24 h post-MI; LV free wall; n = 3~4 per group", "protocol": "as §3, with “± SEM. […]” for “± SEM.”\nThe TUNEL assay was performed following the manufacturer’s instructions (DeadEnd Fluorometric TUNEL System, Promega, […], USA). […] Apoptotic signals and nuclear signals in the LV region were counted using cellSens TruAI 4.3 software (OLYMPUS, Tokyo, Japan), and the percentage of TUNEL-positive cells was calculated."}, "PPP1R3A": {"target": "T3, PPP1R3A (Mus musculus, UniProt Q99MR9)", "T3 construct": "from tissue; host or cells: normal mouse heart after IT injection of biotin-dNP2-SE", "T3 sequence (Q99MR9 1-1089)": "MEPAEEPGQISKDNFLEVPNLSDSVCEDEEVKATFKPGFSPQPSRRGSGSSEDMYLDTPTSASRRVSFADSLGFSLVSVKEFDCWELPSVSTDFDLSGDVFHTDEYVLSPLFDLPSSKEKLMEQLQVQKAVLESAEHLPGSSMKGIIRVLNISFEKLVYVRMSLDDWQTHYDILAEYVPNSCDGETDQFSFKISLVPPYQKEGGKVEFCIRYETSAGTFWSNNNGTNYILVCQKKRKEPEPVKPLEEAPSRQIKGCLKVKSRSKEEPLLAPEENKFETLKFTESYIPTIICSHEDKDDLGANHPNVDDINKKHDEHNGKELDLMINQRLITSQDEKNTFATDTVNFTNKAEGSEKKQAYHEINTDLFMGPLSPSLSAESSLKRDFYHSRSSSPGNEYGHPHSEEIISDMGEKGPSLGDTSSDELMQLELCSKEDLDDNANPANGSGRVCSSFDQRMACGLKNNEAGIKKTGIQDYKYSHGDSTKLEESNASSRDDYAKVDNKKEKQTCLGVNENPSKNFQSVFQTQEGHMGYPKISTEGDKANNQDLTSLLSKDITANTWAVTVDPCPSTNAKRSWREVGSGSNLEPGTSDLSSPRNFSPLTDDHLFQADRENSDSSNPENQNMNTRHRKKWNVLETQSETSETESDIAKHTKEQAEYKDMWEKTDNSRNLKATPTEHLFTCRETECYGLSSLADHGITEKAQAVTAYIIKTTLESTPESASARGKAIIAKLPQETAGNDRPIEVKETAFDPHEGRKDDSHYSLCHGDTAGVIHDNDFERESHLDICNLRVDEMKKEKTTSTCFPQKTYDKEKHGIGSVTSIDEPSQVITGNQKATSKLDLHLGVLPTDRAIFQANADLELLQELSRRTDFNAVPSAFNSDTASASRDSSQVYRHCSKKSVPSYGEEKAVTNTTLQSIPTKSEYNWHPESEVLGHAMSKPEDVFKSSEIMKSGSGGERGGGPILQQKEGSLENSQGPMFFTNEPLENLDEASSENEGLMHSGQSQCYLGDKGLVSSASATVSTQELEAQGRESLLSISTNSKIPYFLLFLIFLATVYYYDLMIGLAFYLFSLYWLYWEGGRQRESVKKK", "assay": "Streptavidin precipitation of biotin-dNP2-SE from heart lysates, blot for PPP1R3A", "format": "binding, mice", "settings": "biotin-dNP2-SE delivered to the normal heart via IT injection", "text": "as §1"}, "[6]": {"settings": "cited from earlier work", "text": "In this study, we aimed to evaluate the feasibility of delivering a naked peptide fused with a cell-penetrating peptide (CPP) to the heart via the lung-to-heart route without encapsulation in NPs. CPPs, which are the peptide sequences enriched in arginine and lysine residues, facilitate the translocation of hydrophilic macromolecules such as proteins and peptides across cellular membranes. The specific CPP used in this study is a tandem repeat of NP2 (dNP2), a sequence derived from the human novel LZAP-binding protein (NLBP). Compared to TAT, the most widely used CPP originated fro ..."}, "[7]": {"settings": "24 h post-MI, n = 6~7 per group"}}, "data": [{"substance": "Ac-KIKKVKKKGRKGSKIKKVKKKGRKGRAETIEMPQ-NH2 [dNP2-SE]", "values": [{"measurement": "Binding to PP1cα (streptavidin precipitation, western blot)", "setting": "PP1cα", "value": "strongly binds"}, {"measurement": "PV loop pattern under MI", "setting": "[1]", "value": "indistinguishable from that of sham-operated hearts"}, {"measurement": "Ejection fraction (EF) under MI", "setting": "[1]; vs PBS-injected", "value": "significantly ameliorated"}, {"measurement": "End-systolic pressure–volume ratio (ESPVR) under MI", "setting": "[1]; vs PBS-injected", "value": "significantly normalized"}, {"measurement": "LV end-diastolic volume (Vmax) under MI", "setting": "[1]; vs PBS-injected", "value": "significantly ameliorated"}, {"measurement": "LV end-systolic volume (Vmin) under MI", "setting": "[1]; vs PBS-injected", "value": "significantly ameliorated"}, {"measurement": "dP/dt max under MI", "setting": "[1]; vs PBS-injected", "value": "significantly normalized"}, {"measurement": "dP/dt min under MI", "setting": "[1]; vs PBS-injected", "value": "significantly normalized"}, {"measurement": "Phosphorylation of PLN at S16 (p-PLN) in heart under MI", "setting": "[2]; p-PLN/PLN", "value": "fully preserved"}, {"measurement": "Expression level of PP1cα in heart", "setting": "[2]", "value": "remained unchanged"}, {"measurement": "MI-induced increase in PPP1R3A expression in heart", "setting": "[2]", "value": "prevented"}, {"measurement": "MI-induced increase of α-smooth muscle actin (α-SMA) in heart", "setting": "[2]", "value": "attenuated"}, {"measurement": "MI-induced reduction of SERCA2a expression in heart", "setting": "[2]", "value": "attenuated"}, {"measurement": "Interactions between PP1cα and PPP1R3A (co-immunoprecipitation)", "setting": "[3]", "value": "not altered"}, {"measurement": "Physical interactions between PP1cα and PLN (co-immunoprecipitation)", "setting": "[3]; vs PBS-injected", "value": "completely abolished"}, {"measurement": "Heart weight-to-body weight ratio under MI", "setting": "[4]; [7]", "value": "normalized"}, {"measurement": "LV chamber area under MI", "setting": "[4]; [7]", "value": "remained normal"}, {"measurement": "LV free wall thickness under MI", "setting": "[4]; [7]", "value": "significantly preserved"}, {"measurement": "Collagen deposition (Picro Sirius staining) under MI", "setting": "[4]; hearts 24 h post-MI", "value": "markedly reduced"}, {"measurement": "Increase in apoptotic cell populations (TUNEL-positive cells) under MI", "setting": "[5]", "value": "effectively prevented"}, {"measurement": "Interaction with PPP1R3A (streptavidin precipitation, western blot)", "setting": "PPP1R3A", "value": "only weakly interacts"}]}, {"substance": "KIKKVKKKGRKGSKIKKVKKKGRKG [dNP2]", "values": [{"measurement": "Toxicity compared to TAT", "setting": "[6]", "value": "significantly lower toxicity than TAT"}]}]}
